Laboratory results reported in patent US20260272967A1, “TRADITIONAL CHINESE MEDICINE COMPOSITION FOR TREATING LUNG INFLAMMATION RELATED DISEASES AND ITS USES” (XIYUAN HOSPITAL, CHINA ACADEMY OF CHINESE MEDICAL SCIENCES, priority 2023, published 2026).
Where two headings read alike, the source gives them in different places.

Legend:
RAW264.7 cells = conditions: reported by NICM Health Research Institute; cited from earlier work
[1] = test system: LPS-induced RAW264.7 cells; experiment: Inhibition of NO release in LPS-induced RAW264.7 cells, with Chou-Talalay synergy analysis (Experimental Example 1); assay type: cell-based, mouse; conditions: for NO Production Rate: LPS 50 ng/mL 24 h, LPS without drug = 100%; for IC50: read-out: IC50 (concentration at which NO production is 50%), LPS-induced RAW264.7 cells, NO release
Procedure: RAW264.7 cells were seeded in a 96-well cell culture plate at 1×10^6/mL and cultured for 24 h. […] The cells were pretreated with the serially diluted drug solutions for 2 h, and then treated with LPS (50 ng/mL) for 24 h. The cell supernatant was aspirated, the NO release level in the supernatant was determined, and the IC50 values of the four groups of drugs inhibiting NO release were calculated. The dose-effect relationships of the three single components and the three-component composition were imported into CalcuSyn software 2.0 (Biosoft, USA), and the inhibition rate-combination index plot (Fa-CI) was generated using the Chou-Talalay mathematical model. The Fa-CI plot can reflect the relationship between the CI value and the effective level of a certain biological index (i.e., the inhibitory effect on NO). The intensity and nature of the interaction between drugs can be quantitatively judged by the value of CI: CI>1 indicates antagonism, CI=1 indicates additive effect, and CI<1 indicates synergism.

ALI mice induced by LPS [2] = experiment: Mouse acute lung injury model: lung index, W/D, BALF leukocytes and protein (Experimental Example 5); assay type: in vivo; conditions: three-component 398 mg/kg intragastric, dexamethasone 5 mg/kg i.p.
Procedure: (§1) Establishment of mouse acute lung injury model: Mice were anesthetized with isoflurane, and LPS (1 mg/kg) was instilled into one side of the nasal cavity. After instillation, the mice were stood upright quickly, and returned to the original feeding cage after waking up to complete modeling.
(§2) All drugs were administered 0.5 h after establishing the mouse ALI model with LPS.
24 h after model establishment, mice were anesthetized with pentobarbital sodium and sacrificed by abdominal aorta bloodletting. Lung tissues were dissected and weighed, and the lung coefficient (lung tissue weight/mouse body weight) was calculated; the right upper lobe of the mouse lung was fixed in formalin, and pathological sections were made and stained with HE to observe pathological changes; the middle and lower lobes of the right lung of the mouse were weighed (wet weight), placed in a 60° C. oven to dry to constant weight, and weighed (dry weight), and the wet-to-dry weight ratio (wet weight/dry weight, W/D) was calculated. The right bronchus of the mouse was ligated, the left lobe of the lung was taken, and bronchoalveolar lavage fluid (BALF) was recovered after lavage with 0.8 mL PBS for three times. The total number of leukocytes and total protein concentration were determined using an automatic cell counter.

ALI mice induced by LPS [3] = experiment: Mouse acute lung injury model: BALF inflammatory factors and lung pathology (Experimental Example 6); assay type: in vivo; conditions: three-component 398 mg/kg intragastric, dexamethasone 5 mg/kg i.p.
Procedure: as §1, §2
The levels of inflammatory factors IL-1B, IL-6 and TNF-α in BALF were determined in strict accordance with the instructions of the inflammatory factor detection kit.
The right upper lobe of the mouse lung was fixed with tissue fixative for 72 hours, and HE-stained sections were prepared by paraffin embedding, sectioning, dehydration and staining. Lung tissue lesions were observed under a microscope.

IC50 ([1]; Mus musculus) [µM] | SMILES | inhibiting LPS-induced NO release from RAW264.7 cells (RAW264.7 cells) | NO Production Rate ([1]; 0.86 μM) [%] | NO Production Rate ([1]; 12.5 μM) [%] | NO Production Rate ([1]; 25 μM) [%] | NO Production Rate ([1]; 50 μM) [%] | NO Production Rate ([1]; 100 μM) [%] | NO Production Rate ([1]; 1.63 μM) [%] | NO Production Rate ([1]; 3.125 μM) [%] | NO Production Rate ([1]; 6.25 μM) [%] | other results
11.3 ± 1.32 | O=c1cc(-c2ccccc2)oc2cc(O)c(O)c(O)c12 [Baicalein, baicalein] | a certain effect | 90.14 ± 7.64 | 60.52 ± 5.14 | 40.47 ± 6.87 | 7.77 ± 3.47 | 2.44 ± 2.33 |  |  |  | 
 | CCCCC/C=C/C(=O)CCc1ccc(O)c(OC)c1 [6-Shogaol, 6-shogaol] | a certain effect |  | 11.42 ± 2.69 | 8.67 ± 0.84 | 6.11 ± 2.41 | 5.89 ± 3.38 | 60.42 ± 6.14 | 56.75 ± 6.97 | 41.41 ± 2.75 | IC50 [1]: 3.23 ± 0.42 µM
 | C[C@@H]1C[C@H]2[C@@H]3CCC4=CC(=O)C=C[C@]4(C)[C@@]3(F)[C@@H](O)C[C@]2(C)[C@@]1(O)C(=O)CO [Dexamethasone, dexamethasone] |  |  |  |  |  |  |  |  |  | BALF Leukocytes (ALI mice induced by LPS [2]; 24 h after LPS): 18.760 ± 7.468 ×10^5 cells/mL; BALF Protein Concentration (ALI mice induced by LPS [2]; 24 h after LPS): 0.814 ± 0.183 mg/mL; Lung Index (BW) (ALI mice induced by LPS [2]; lung tissue weight/body weight, 24 h after LPS 1 mg/kg intranasal, 0.5 h after LPS): 0.816 ± 0.089; Wet-to-Dry Weight Ratio (W/D) (ALI mice induced by LPS [2]; right lung lobes, 24 h after LPS): 4.701 ± 0.221; IL-1β in BALF (ALI mice induced by LPS [3]; ALI mice, 24 h after LPS): 186.475 ± 76.810 pg/mL; IL-6 in BALF (ALI mice induced by LPS [3]; ALI mice, 24 h after LPS): 819.19 ± 506.63 pg/mL; TNF-α in BALF (ALI mice induced by LPS [3]; ALI mice, 24 h after LPS): 345.080 ± 239.594 pg/mL; Pathological Score (ALI mice induced by LPS [3]; lung tissue, HE staining): 6.70 ± 2.50
78.8 ± 11.9 | CC1(C)[C@@H](O[C@H]2O[C@H](C(=O)O)[C@@H](O)[C@H](O)[C@H]2O[C@@H]2O[C@H](C(=O)O)[C@@H](O)[C@H](O)[C@H]2O)CC[C@]2(C)[C@H]3C(=O)C=C4[C@@H]5C[C@@](C)(C(=O)O)CC[C@]5(C)CC[C@@]4(C)[C@]3(C)CC[C@@H]12 [Glycyrrhizic Acid, glycyrrhizic acid] | a certain effect | 105.02 ± 8.02 | 80.67 ± 4.74 | 71.04 ± 3.50 | 55.35 ± 3.98 | 43.54 ± 6.10 | 88.06 ± 5.38 | 86.28 ± 2.29 | 81.79 ± 5.81 | 
 | C=C1CC[C@@H]2[C@](C)(CO)[C@H](O)CC[C@@]2(C)[C@@H]1C/C=C1/C(=O)OC[C@H]1O [andrographolide] | a certain effect |  |  |  |  |  |  |  |  | 
 | O=c1cc(-c2ccc(O)c(O)c2)oc2cc(O)cc(O)c12 [luteolin] | a certain effect |  |  |  |  |  |  |  |  | 
